This note sets out measurements from patent EP4570805A1, “TRICYCLIC COMPOUNDS AND MEDICAL USE THEREOF” (Chia Tai Tianqing Pharmaceutical Group Co., Ltd., priority 2022, dated 2024).

For experiment [1], the system named is AsPc-1 cells. Description: Inhibitory activity for AsPc-1 cell proliferation (CCK-8). The experiment is classed as cell-based, human. The method, then:
AsPc-1 cells in a well-growing state were collected into a centrifuge tube, adjusted to a cell density of 3 × 10^4 cells/mL, and inoculated onto a 96-well plate (100 µL/well). The compounds were added using a nanoliter pipettor such that the final concentrations of the compounds were 5000 nM-0.31 nM (the addition was performed in duplicate). Meanwhile, a control was set. After 72 h of incubation in the cell incubator, the assay reagent CCK-8 (manufacturer: Dojindo Laboratories; 10 µL/well) was added. After 3 h of incubation in the cell incubator, the absorbance was measured at 450 nm on a PerkinElmer Envision microplate reader. A four-parameter analysis was performed, a dose-response curve was fitted, and IC50 was calculated.

Experiment [2] has as its system Capan-1 cells. Description: Inhibitory activity for Capan-1 cell proliferation (CCK-8). The experiment is classed as cell-based. As to conditions: 5 days incubation. The protocol: Capan-1 cells in a well-growing state were collected into a centrifuge tube, adjusted to a cell density of 1.5 × 10^4 cells/mL, and inoculated onto a 96-well plate (100 µL/well). […] Meanwhile, a control was set. After 5 days of incubation in the cell incubator, the assay reagent CCK-8 (manufacturer: Dojindo Laboratories, Beijing; 10 µL/well) was added. After 4 h of incubation in the cell incubator, the absorbance was measured at 450 nm on a PerkinElmer Envision microplate reader. A four-parameter analysis was performed, a dose-response curve was fitted, and IC50 was calculated.

Where [3] appears, read: Homo sapiens, ASPC1, 72 h incubation.

A value given as a limit tells only on which side of the number the result lay.

With `C#Cc1c(F)ccc2cc(O)cc(-c3nc4c5c(nc(OCC67CCCN6CC(F)C7)nc5c3F)N(C(C)c3cccnc3N)C(C)CO4)c12` (single isomer, unassigned) [Example 39], the IC50 (usually the concentration needed to halve the response being measured) in experiment [1] (setting [3]) was no more than 100 nM; in experiment [2] (Homo sapiens, CAPAN-1, 120 h) it was less than 100 nM.
Take `C#Cc1c(F)ccc2cc(O)cc(-c3nc4c5c(nc(OCC67CCCN6CC(F)C7)nc5c3F)N(C(C)c3cccnc3N)C(C)CO4)c12` (single isomer, unassigned) [Example 40]: the IC50 in experiment [1] (72 h incubation) was no more than 100 nM; in experiment [2] it was less than 100 nM.
For `C#Cc1c(F)ccc2cccc(-c3nc4c5c(nc(OCC67CCCN6CC(F)C7)nc5c3F)N(C(C)c3cccnc3N)C(C)CO4)c12` (single isomer, unassigned) [Example 47], the IC50 in experiment [1] (setting [3]) was no more than 100 nM; in experiment [2] (Homo sapiens, CAPAN-1, 120 h) it was less than 100 nM.
For the compound `C#Cc1c(F)ccc2cc(N)cc(-c3nc4c5c(nc(OCC67CCCN6CC(F)C7)nc5c3F)N(C(C)c3cccnc3N)C(C)CO4)c12` (single isomer, unassigned) [Example 53], the IC50 in experiment [1] (setting [3]) is no more than 100 nM; in experiment [2] (Homo sapiens, CAPAN-1, 120 h), less than 100 nM.
With `C#Cc1c(F)ccc2cc(N)cc(-c3nc4c5c(nc(OCC67CCCN6CC(F)C7)nc5c3F)N(C(C)c3cccnc3N)C(C)CO4)c12` (single isomer, unassigned) [Example 54], the values for the IC50 in experiment [1] (72 h incubation) and in experiment [2] were no more than 100 nM and less than 100 nM, respectively.
Take `C#Cc1c(F)ccc2cc(O)cc(-c3nc4c5c(nc(OC[C@@H]6CCCN6C)nc5c3F)N(C(C)c3cccnc3N)[C@@H](C)CO4)c12` (single isomer, unassigned) [Example 67]: the IC50 in experiment [1] (setting [3]) was no more than 100 nM; in experiment [2] (Homo sapiens, CAPAN-1, 120 h), less than 100 nM.
`C#Cc1c(F)ccc2cc(O)cc(-c3nc4c5c(nc(OCC6(CN7CCOCC7)CC6)nc5c3F)N(C(C)c3cccnc3N)[C@@H](C)CO4)c12` (single isomer, unassigned) [Example 69]: the IC50 is no more than 100 nM in experiment [1] (setting [3]) and less than 100 nM in experiment [2] (Homo sapiens, CAPAN-1, 120 h).
For `[2H]C([2H])(Oc1nc2c3c(nc(-c4cc(O)cc5ccc(F)c(C#C)c45)c(F)c3n1)OC[C@H](C)N2C(C)c1cccnc1N)[C@@]12CCCN1C[C@H](F)C2` (single isomer, unassigned) [Example 71], the IC50 is no more than 100 nM in experiment [1] (setting [3]) and less than 100 nM in experiment [2] (Homo sapiens, CAPAN-1, 120 h).
For the compound `C#Cc1c(F)ccc2cc(O)cc(-c3nc4c5c(nc(OC[C@@H]6C[C@H](F)CN6C)nc5c3F)N(C(C)c3cccnc3N)[C@@H](C)CO4)c12` (single isomer, unassigned) [Example 105], the IC50 in experiment [1] (setting [3]) is no more than 100 nM; in experiment [2] (Homo sapiens, CAPAN-1, 120 h), less than 100 nM.
As to `[2H]C([2H])(Oc1nc2c3c(nc(-c4cccc5ccc(F)c(C#C)c45)c(F)c3n1)OC[C@H](C)N2C(C)c1cccnc1N)[C@@]12CCCN1C[C@H](F)C2` (single isomer, unassigned) [Example 113], the IC50 was no more than 100 nM in experiment [1] (setting [3]) and less than 100 nM in experiment [2] (Homo sapiens, CAPAN-1, 120 h).
Regarding `[2H]C([2H])(Oc1nc2c3c(nc(-c4cccc5ccc(F)c(C#C)c45)c(F)c3n1)OC[C@H](C)N2C(C)c1cccnc1N)[C@@]12CCCN1C[C@H](F)C2` (single isomer, unassigned) [Example 114], the IC50 in experiment [1] (72 h incubation) was no more than 100 nM; in experiment [2] it was less than 100 nM.
On to `CC(c1cccnc1N)N1c2nc(OC[C@@]34CCCN3C[C@H](F)C4)nc3c(F)c(-c4cc(O)cc5ccccc45)nc(c23)OC[C@@H]1C` (single isomer, unassigned) [Example 118], for which the IC50 was no more than 100 nM in experiment [1] (setting [3]) and less than 100 nM in experiment [2] (Homo sapiens, CAPAN-1, 120 h).
Turning to `CCc1c(F)ccc2cccc(-c3nc4c5c(nc(OC[C@@]67CCCN6C[C@H](F)C7)nc5c3F)N(C(C)c3cccnc3N)[C@@H](C)CO4)c12` (single isomer, unassigned) [Example 122], the IC50 in experiment [1] (setting [3]) is no more than 100 nM; in experiment [2] (Homo sapiens, CAPAN-1, 120 h), less than 100 nM.
On to `CC(c1cccnc1N)N1c2nc(OC[C@@]34CCCN3C[C@H](F)C4)nc3c(F)c(-c4cccc5ccc(F)c(Cl)c45)nc(c23)OC[C@@H]1C` (single isomer, unassigned) [Example 124], for which the IC50 in experiment [1] (setting [3]) is no more than 100 nM; in experiment [2] (Homo sapiens, CAPAN-1, 120 h), less than 100 nM.
With `C#Cc1cccc2cccc(-c3nc4c5c(nc(OC[C@@]67CCCN6C[C@H](F)C7)nc5c3F)N(C(C)c3cccnc3N)[C@@H](C)CO4)c12` (single isomer, unassigned) [Example 130], the IC50 was no more than 100 nM in experiment [1] (setting [3]) and less than 100 nM in experiment [2] (Homo sapiens, CAPAN-1, 120 h).
For `C#Cc1c(F)ccc2cc(O)cc(-c3nc4c5c(nc(OCCN6CCCC6)nc5c3F)N(C(C)c3cccnc3N)[C@@H](C)CO4)c12` (single isomer, unassigned) [Example 138] the same measures were no more than 100 nM and less than 100 nM.
Consider `C#Cc1c(F)ccc2cc(O)cc(-c3nc4c5c(nc(OC[C@@H]6C[C@@H](F)CN6C)nc5c3F)N(C(C)c3cccnc3N)[C@@H](C)CO4)c12` (single isomer, unassigned) [Example 146], for which the IC50 in experiment [1] (setting [3]) was no more than 100 nM; in experiment [2] (Homo sapiens, CAPAN-1, 120 h), less than 100 nM.
In the case of `C#Cc1c(F)ccc2cc(O)cc(-c3nc4c5c(nc(OC[C@@H]6CC(F)(F)CN6C)nc5c3F)N(C(C)c3cccnc3N)[C@@H](C)CO4)c12` (single isomer, unassigned) [Example 148], the 50% inhibitory concentration (IC50) in experiment [1] (setting [3]) was no more than 100 nM; in experiment [2] (Homo sapiens, CAPAN-1, 120 h), less than 100 nM.
For the compound `C#Cc1c(F)ccc2cc(O)cc(-c3nc4c5c(nc(OCC6(CN(C)C)CC6)nc5c3F)N(C(C)c3cccnc3N)[C@@H](C)CO4)c12` (single isomer, unassigned) [Example 150], the half-maximal inhibitory concentration (IC50) in experiment [1] (setting [3]) was no more than 100 nM; in experiment [2] (Homo sapiens, CAPAN-1, 120 h), less than 100 nM.
In the same order, the values of `C#Cc1c(F)ccc2cc(O)cc(-c3nc4c5c(nc(N6CC(C)(N(C)C)C6)nc5c3F)N(C(C)c3cccnc3N)[C@@H](C)CO4)c12` (single isomer, unassigned) [Example 156] are no more than 100 nM and less than 100 nM.
In the case of `C#Cc1c(F)ccc2cc(O)cc(-c3nc4c5c(nc(OCCN6CC(F)C6)nc5c3F)N(C(C)c3cccnc3N)[C@@H](C)CO4)c12` (single isomer, unassigned) [Example 172], the IC50 in experiment [1] (setting [3]) was no more than 100 nM; in experiment [2] (Homo sapiens, CAPAN-1, 120 h) it was less than 100 nM.
For `C#Cc1c(F)ccc2cc(O)cc(-c3nc4c5c(nc(OC[C@@]67CCCN6C/C(=C\F)C7)nc5c3F)N(C(C)c3cccnc3N)[C@@H](C)CO4)c12` (single isomer, unassigned) [Example 176] the same measures were no more than 100 nM and less than 100 nM.
For `C#Cc1c(F)ccc2cc(O)cc(-c3nc4c5c(nc(OC[C@@]67CCCN6C/C(=C\F)C7)nc5c3F)N(C(C)c3cccnc3N)[C@@H](C)CO4)c12` (single isomer, unassigned) [Example 177], the IC50 in experiment [1] (72 h incubation) was no more than 100 nM; in experiment [2], less than 100 nM.
For the compound `C#Cc1c(F)ccc2cc(O)cc(-c3nc4c5c(nc(OC[C@@]67CCCN6C[C@H](F)C7)nc5c3F)N(CC)CCO4)c12` [Example 3], the IC50 in experiment [1] (setting [3]) lay within 100 to 500 nM; in experiment [2] (Homo sapiens, CAPAN-1, 120 h), 100 to 500 nM.
Consider `C#Cc1c(F)ccc2cc(O)cc(-c3nc4c5c(nc(OC[C@@]67CCCN6C[C@H](F)C7)nc5c3F)N(C(C)(C)C)CCO4)c12` [Example 31], for which the IC50 in experiment [1] (setting [3]) is 100 to 500 nM; in experiment [2] (Homo sapiens, CAPAN-1, 120 h) it was 100 to 500 nM.
As to `C#Cc1c(F)ccc2cc(O)cc(-c3nc4c5c(nc(OC[C@@]67CCCN6C[C@H](F)C7)nc5c3F)N(C(C)c3cccnc3N)CCO4)c12` (stereo partly shown) [Example 34], the 50% inhibitory concentration (IC50) was no more than 100 nM in experiment [1] (setting [3]) and less than 100 nM in experiment [2] (Homo sapiens, CAPAN-1, 120 h).
On to `C#Cc1c(F)ccc2cc(O)cc(-c3nc4c5c(nc(OC[C@@]67CCCN6C[C@H](F)C7)nc5c3F)N(C(C)c3cccnc3N)[C@@H](C)CO4)c12` (stereo partly shown) [Example 38], for which the IC50 in experiment [1] (setting [3]) was no more than 100 nM; in experiment [2] (Homo sapiens, CAPAN-1, 120 h), less than 100 nM.
Regarding `[2H]C([2H])(Oc1nc2c3c(nc(-c4cc(O)cc5ccc(F)c(C#C)c45)c(F)c3n1)OCCN2C(C)c1cccnc1N)[C@@]12CCCN1C[C@H](F)C2` (stereo partly shown) [Example 51], the IC50 in experiment [1] (setting [3]) was no more than 100 nM; in experiment [2] (Homo sapiens, CAPAN-1, 120 h), less than 100 nM.
Regarding `CC(c1cccnc1N)N1c2nc(OC[C@@]34CCCN3C[C@H](F)C4)nc3c(F)c(-c4cccc5cccc(Cl)c45)nc(c23)OC[C@@H]1C` (stereo partly shown) [Example 115], the IC50 in experiment [1] (setting [3]) was no more than 100 nM; in experiment [2] (Homo sapiens, CAPAN-1, 120 h), less than 100 nM.
